The subject of assay [1] is Endothelial cells (EC). As to the kind of experiment: Cold storage and reperfusion injury of pre-treated endothelial cells, measured by electrical resistance. In kind it is cell-based. The note with it: ECs pre-treated with UW solution comprising 50 μM or 100 μM ACT1 vs UW solution only; 1, 3, 12 and 24 hours post-treatment; FIG. 1A. The method, then:
(§1) Endothelial cells (EC) were pre-treated with University of Wisconsin (UW) solution only, or UW solution comprising 50 μM or 100 μM ACT1. Cold storage and reperfusion injury, pro-inflammatory cytokine release, and gap junction stabilization (Cx43 expression) were measured.

In assay [2] the test system is IL-8. As to the kind of experiment: Pro-inflammatory cytokine (IL-8) release from pre-treated endothelial cells. In kind it is cell-based. The note with it: ECs pre-treated with UW solution comprising 50 μM or 100 μM ACT1 vs UW solution only; FIG. 1B. How it is done: as §1
In assay [3] the test system is Cx43. As to the kind of experiment: Gap junction stabilization (Cx43 expression) in pre-treated endothelial cells. In kind it is cell-based. The note with it: ACT1 pretreatment in UW solution; 1 hour and 24 hours post reperfusion; FIG. 1C. How it is done:
as §1

The subject of assay [4] is Balb/c donor hearts. As to the kind of experiment: Allogenic heart transplantation model with static cold storage of donor hearts. The class given is in vivo, Balb/c donors, B6 recipients. Particulars: donor hearts cold stored 6 h at 4° C. in UW solution with ACT1 vs UW alone.
In assay [5] the test system is Aortic allografts. As to the kind of experiment: Aortic allograft transplantation, chronic rejection. In kind it is in vivo, Balb/c donors, B6 recipients. How it is done:
Aortic allografts were stored for 6 hours or 24 hours, and assessed on Day 28 after transplantation for neointimal hyperplasia (a hallmark of chronic rejection) and T cell infiltration.

For assay [6], the system named is Pig kidneys. In words: Pig kidney ex vivo perfusion model. How it is done:
Pig kidneys were harvested and flushed with cold HTK solution, and then underwent 18 hours of cold static storage in HTK solution. At 18 hours, the kidneys were placed on a perfusion pump and perfused in cold HTK solution with or without 1 μM ACT1 (500 μL/mL). The control kidney in each pair was perfused with cold HTK and its pair was perfused with cold HTK supplemented with ACT1. While on pump, the resistance values were recorded and samples were collected of the perfusate solution every 30 minutes. At the end of 6 hours on the pump, kidneys were taken off of the pump and biopsies were collected and assessed for viability, function, and characteristics as described below.
Tubular necrosis (in this study, a measure of cell death) was assessed by basic histology/pathology methods and subjective scoring. Overall epithelial cell death was determined using EpCam as the marker. The relative expression of Vcam and ICam were determined via RT-qPCR in biopsied tissue at the end of each perfusion pump run. LDH ([…] dehydrogenase) was measured as a marker of tissue injury and was quantified using a colorimetric assay.

Setting [7] is: biopsied tissue at end of perfusion with ACT1-augmented HTK solution vs HTK, FIG. 7.

As to RQPKIWFPNRRKPWKKRPRPDDLEI [ACT1], the “cold storage and reperfusion injury as measured by electrical resistance” value in assay [1] is “prevented cold storage and reperfusion injury”. The “IL-8 release from the ECs” value in assay [2] is “significantly reduced”. Further, the Cx43 expression result in assay [3] was “increased”. Moreover, in assay [4] (FIG. 2C), the “number of macrophages (MAC-3+ cells)” value is “significantly reduced” and the “number of neutrophils (GR1+ cells)” value is “significantly reduced”. For the same sequence, in assay [4] (FIG. 2D), the “IRI as measured by cardiac troponin I” value was “significantly reduced” and the “IRI as measured by cumulative histology score” value is listed as “significantly reduced”. Also, the percent intimal expansion entry in assay [5] (28 days post-treatment, including aortas stored for 24 hours, FIG. 3B) is “significantly reduced”. In addition, the “neointimal hyperplasia following aorta transplantation” value in assay [5] (aortic allografts stored 6 hours or 24 hours, assessed on Day 28 after transplantation, FIG. 3A) is listed as “ameliorates”. For the same sequence, in assay [6] (18 h cold static storage in HTK, then 6 hours pump perfusion in cold HTK with 1 μM ACT1 vs without, matched kidney donor pairs #1 and #2, FIGS. 4A, 4B, 5A, 5B), the “change in vascular renal resistance” value is recorded as “prevents change in vascular renal resistance”. Moreover, in assay [6] (18 h cold static storage in HTK, then 6 hours pump perfusion in cold HTK with 1 μM ACT1 vs without, matched kidney donor pairs #1 and #2, FIGS. 4C, 5C), the “tubular necrosis (histology, subjective scoring)” value is listed as “reduces tubular necrosis”. In assay [6] (setting [7]), the “endothelial cell activation as measured by Icam expression (RT-qPCR)” value is listed as “decreases endothelial cell activation” and the “endothelial cell activation as measured by Vcam expression (RT-qPCR)” value is “decreases endothelial cell activation”. Moreover, the “LDH activity (marker of tissue injury, colorimetric assay)” value in assay [6] (cold HTK perfusion with 1 μM ACT1 vs without, paired marginal kidneys, FIG. 6) is recorded as “decreases LDH activity”.
